Values joined by “and” are separate entries in the source; they are usually repeats but may differ in a detail not shown here. Identical values can stand only once. Like-named read-outs stand apart in the source and are kept apart here.
Key:
[1] = Tissue distribution after single oral administration in rats; type: in vivo, rat; conditions: for Bone concentration / Joint concentration / Kidney concentration / Liver concentration / concentration at 2 h / concentration at 8 h / concentration at 24 h / Muscle concentration / Prostate concentration / Spleen concentration: 100 mg/kg; for Kp / concentration at 2 h / concentration at 8 h / concentration at 24 h / Cmax / Tmax / AUC / AUC(0-inf) / half-life: rat; for concentration at 2 h / concentration at 8 h / concentration at 24 h: po; for AUC: read-out: AUC24; for half-life: read-out: Terminal t1/2 (converted)
Protocol: Experiments were performed at ChemPartner, Shanghai, China and approved by Institutional Ethics Committee (IEC) of ChemPartner. Male Wistar 10–12 weeks old rats with body weights of 185–220 g and male New Zealand rabbits with body weights of 2.0–2.3 kg were purchased from Shanghai SLAC Laboratory Animal Co., Ltd. MT-SYK-03 was administered to the three groups of rats (six rats per group) via oral gavage at 10 mL/kg concentration, and in rabbits 5 mL/kg concentration. Blood samples were kept on ice and centrifuged (2000 g, 4 ℃, 5 min) within 15 min post sampling.

[2] = system: SYK-mediated signaling in human B-cell lymphoma cells; experiment: Detection of SYK activity in cells by Western blot; type: cell-based; conditions: 1, 3, 10 uM
Protocol: Western blot was performed at A. N. Bakh Institute of Biochemistry, Russia. Human B-cell lymphoma cells obtained from Russian collection cell cultures (RCCC) were cultured in 5% CO2 humidified atmosphere at 37 °C in RPMI 1640 supplemented with 100 U mL^–1 penicillin/streptomycin and 10% heat inactivated FBS. P3H3 cells (10^6 cells in 1 ml of RPMI media with 5% FBS) were incubated with test compound or vehicle control (DMSO, 1%) for one hour at 37 °C in a 5% CO2-incubator. Then anti-IgM (1 μg/mL) was added to activate B-cell receptors and incubation continued for additional 15 min. After that the cells were washed with cooled PBS buffer and were lysed in 200 μL of ice-cold lysis buffer (62,5 mM Tris–HCl, pH 6.8, 2% w/v SDS, 10% glycerin, 50 mM DTT, 0,01% w/v BPB). Then lysates were sonicated for 20 s in ice, heated to 95–100 °C for 5 min and centrifuged for 5 min. 20 μL of obtained samples were electrophoresed on 10% SDS–polyacrylamide gel (gel blocks: 90 × 60 × 1.5 mm; current intensity: 30 mA, time: 2.5–3 h) and transferred to nitrocellulose membranes (BioRad). Western blotting was carried out according to the Amersham Pharmacia Biotech ECL Western blotting protocol. […]

[3] = bone, 100 mg/kg PO, male Wistar rats, Estimated Value
[4] = joint, 100 mg/kg PO, male Wistar rats, Estimated Value
[5] = kidney, 100 mg/kg PO, male Wistar rats, Estimated Value
[6] = liver, 100 mg/kg PO, male Wistar rats, Estimated Value
[7] = muscle, 100 mg/kg PO, male Wistar rats, Estimated Value
[8] = prostate, 100 mg/kg PO, male Wistar rats, Estimated Value
[9] = spleen, 100 mg/kg PO, male Wistar rats, Estimated Value

## COc1cc(Nc2ncnc(Nc3cc4c(cn3)NC(=O)C(C)(C)O4)n2)cc(OC)c1OC [MT-SYK-03]
[1]; bone, 100 mg/kg PO, male Wistar rats, 2 h, individual animals
  Bone concentration: 433 ng/mL and 576 ng/mL
[1]; bone, 100 mg/kg PO, male Wistar rats, 8 h, individual animals
  Bone concentration: 1290 ng/mL and 681 ng/mL and 153 ng/mL
[1]; bone, 100 mg/kg PO, male Wistar rats, 24 h, individual animals
  Bone concentration: 8.28 ng/mL and 19.9 ng/mL and 14.5 ng/mL
[1]; joint, 100 mg/kg PO, male Wistar rats, 2 h, individual animals
  Joint concentration: 584 ng/mL and 631 ng/mL
[1]; joint, 100 mg/kg PO, male Wistar rats, 8 h, individual animals
  Joint concentration: 1100 ng/mL and 673 ng/mL and 216 ng/mL
[1]; joint, 100 mg/kg PO, male Wistar rats, 24 h, individual animals
  Joint concentration: 12.2 ng/mL and 20.4 ng/mL and 8.49 ng/mL
[1]; kidney, 100 mg/kg PO, male Wistar rats, 2 h, individual animals
  Kidney concentration: 2880 ng/mL and 3160 ng/mL
[1]; kidney, 100 mg/kg PO, male Wistar rats, 8 h, individual animals
  Kidney concentration: 1200 ng/mL and 375 ng/mL and 260 ng/mL
[1]; kidney, 100 mg/kg PO, male Wistar rats, 24 h, individual animals
  Kidney concentration: 5.30 ng/mL and 72.0 ng/mL and 8.51 ng/mL
[1]; liver, 100 mg/kg PO, male Wistar rats, 2 h, individual animals
  Liver concentration: 4700 ng/mL and 6610 ng/mL
[1]; liver, 100 mg/kg PO, male Wistar rats, 8 h, individual animals
  Liver concentration: 1860 ng/mL and 635 ng/mL and 442 ng/mL
[1]; liver, 100 mg/kg PO, male Wistar rats, 24 h, individual animals
  Liver concentration: 7.95 ng/mL and 115 ng/mL and 12.8 ng/mL
[1]; male, Wistar, bone and cartilage tissues, rats, single oral administration, read-out: Exposure in bone and cartilage tissues relative to plasma
  Kp: 3
[1]; male, Wistar, bone, bone, 100 mg/kg PO, male Wistar rats, 2 h, individual animals, read-out: Bone concentration
  concentration at 2 h: 327 ng/mL
[1]; male, Wistar, bone, bone, 100 mg/kg PO, male Wistar rats, 2 h, mean, read-out: Bone concentration, Mean
  concentration at 2 h: 445 ng/mL
[1]; male, Wistar, bone, bone, 100 mg/kg PO, male Wistar rats, 8 h, mean, read-out: Bone concentration, Mean
  concentration at 8 h: 708 ng/mL
[1]; male, Wistar, bone, bone, 100 mg/kg PO, male Wistar rats, 24 h, mean, read-out: Bone concentration, Mean
  concentration at 24 h: 14.2 ng/mL
[1]; male, Wistar, joint, joint, 100 mg/kg PO, male Wistar rats, 2 h, individual animals, read-out: Joint concentration
  concentration at 2 h: 470 ng/mL
[1]; male, Wistar, joint, joint, 100 mg/kg PO, male Wistar rats, 2 h, mean, read-out: Joint concentration, Mean
  concentration at 2 h: 562 ng/mL
[1]; male, Wistar, joint, joint, 100 mg/kg PO, male Wistar rats, 8 h, mean, read-out: Joint concentration, Mean
  concentration at 8 h: 663 ng/mL
[1]; male, Wistar, joint, joint, 100 mg/kg PO, male Wistar rats, 24 h, mean, read-out: Joint concentration, Mean
  concentration at 24 h: 13.7 ng/mL
[1]; male, Wistar, kidney, kidney, 100 mg/kg PO, male Wistar rats, 2 h, individual animals, read-out: Kidney concentration
  concentration at 2 h: 2350 ng/mL
[1]; male, Wistar, kidney, kidney, 100 mg/kg PO, male Wistar rats, 2 h, mean, read-out: Kidney concentration, Mean
  concentration at 2 h: 2800 ng/mL
[1]; male, Wistar, kidney, kidney, 100 mg/kg PO, male Wistar rats, 8 h, mean, read-out: Kidney concentration, Mean
  concentration at 8 h: 612 ng/mL
[1]; male, Wistar, kidney, kidney, 100 mg/kg PO, male Wistar rats, 24 h, mean, read-out: Kidney concentration, Mean
  concentration at 24 h: 28.6 ng/mL
[1]; male, Wistar, liver, liver, 100 mg/kg PO, male Wistar rats, 2 h, individual animals, read-out: Liver concentration
  concentration at 2 h: 4450 ng/mL
[1]; male, Wistar, liver, liver, 100 mg/kg PO, male Wistar rats, 2 h, mean, read-out: Liver concentration, Mean
  concentration at 2 h: 5250 ng/mL
[1]; male, Wistar, liver, liver, 100 mg/kg PO, male Wistar rats, 8 h, mean, read-out: Liver concentration, Mean
  concentration at 8 h: 979 ng/mL
[1]; male, Wistar, liver, liver, 100 mg/kg PO, male Wistar rats, 24 h, mean, read-out: Liver concentration, Mean
  concentration at 24 h: 45.3 ng/mL
[1]; male, Wistar, muscle, muscle, 100 mg/kg PO, male Wistar rats, 2 h, individual animals, read-out: Muscle concentration
  concentration at 2 h: 456 ng/mL
[1]; male, Wistar, muscle, muscle, 100 mg/kg PO, male Wistar rats, 2 h, mean, read-out: Muscle concentration, Mean
  concentration at 2 h: 436 ng/mL
[1]; male, Wistar, muscle, muscle, 100 mg/kg PO, male Wistar rats, 8 h, individual animals, read-out: Muscle concentration
  concentration at 8 h: 160 ng/mL
[1]; male, Wistar, muscle, muscle, 100 mg/kg PO, male Wistar rats, 8 h, mean, read-out: Muscle concentration, Mean
  concentration at 8 h: 120 ng/mL
[1]; male, Wistar, muscle, muscle, 100 mg/kg PO, male Wistar rats, 24 h, individual animals, read-out: Muscle concentration
  concentration at 24 h: 4.68 ng/mL
[1]; male, Wistar, muscle, muscle, 100 mg/kg PO, male Wistar rats, 24 h, mean, read-out: Muscle concentration, Mean
  concentration at 24 h: 6.8 ng/mL
[1]; male, Wistar, prostate, prostate, 100 mg/kg PO, male Wistar rats, 2 h, individual animals, read-out: Prostate concentration
  concentration at 2 h: 1070 ng/mL
[1]; male, Wistar, prostate, prostate, 100 mg/kg PO, male Wistar rats, 2 h, mean, read-out: Prostate concentration, Mean
  concentration at 2 h: 1260 ng/mL
[1]; male, Wistar, prostate, prostate, 100 mg/kg PO, male Wistar rats, 8 h, mean, read-out: Prostate concentration, Mean
  concentration at 8 h: 251 ng/mL
[1]; male, Wistar, prostate, prostate, 100 mg/kg PO, male Wistar rats, 24 h, individual animals, read-out: Prostate concentration
  concentration at 24 h: 21.6 ng/mL
[1]; male, Wistar, prostate, prostate, 100 mg/kg PO, male Wistar rats, 24 h, mean, read-out: Prostate concentration, Mean
  concentration at 24 h: 21.6 ng/mL
[1]; male, Wistar, spleen, spleen, 100 mg/kg PO, male Wistar rats, 2 h, individual animals, read-out: Spleen concentration
  concentration at 2 h: 2060 ng/mL
[1]; male, Wistar, spleen, spleen, 100 mg/kg PO, male Wistar rats, 2 h, mean, read-out: Spleen concentration, Mean
  concentration at 2 h: 1910 ng/mL
[1]; male, Wistar, spleen, spleen, 100 mg/kg PO, male Wistar rats, 8 h, mean, read-out: Spleen concentration, Mean
  concentration at 8 h: 374 ng/mL
[1]; male, Wistar, spleen, spleen, 100 mg/kg PO, male Wistar rats, 24 h, individual animals, read-out: Spleen concentration
  concentration at 24 h: 30.3 ng/mL
[1]; male, Wistar, spleen, spleen, 100 mg/kg PO, male Wistar rats, 24 h, mean, read-out: Spleen concentration, Mean
  concentration at 24 h: 30.3 ng/mL
[1]; muscle, 100 mg/kg PO, male Wistar rats, 2 h, individual animals
  Muscle concentration: 435 ng/mL and 416 ng/mL
[1]; muscle, 100 mg/kg PO, male Wistar rats, 8 h, individual animals
  Muscle concentration: 107 ng/mL and 93.2 ng/mL
[1]; muscle, 100 mg/kg PO, male Wistar rats, 24 h, individual animals
  Muscle concentration: 8.92 ng/mL and BQL
[1]; prostate, 100 mg/kg PO, male Wistar rats, 2 h, individual animals
  Prostate concentration: 1200 ng/mL and 1500 ng/mL
[1]; prostate, 100 mg/kg PO, male Wistar rats, 8 h, individual animals
  Prostate concentration: 500 ng/mL and 154 ng/mL and 98.0 ng/mL
[1]; prostate, 100 mg/kg PO, male Wistar rats, 24 h, individual animals
  Prostate concentration: BQL
[1]; [3]
  Cmax: 708 ng/mL
  Tmax: 8 h
  AUC: 9680 ng·h/mL
[1]; bone, 100 mg/kg PO, male Wistar rats, Estimated Value, read-out: AUC24/AUC24 (plasma)
  Kp: 2.5
[1]; [4]
  Cmax: 663 ng/mL
  Tmax: 8 h
  AUC: 9650 ng·h/mL
[1]; joint, 100 mg/kg PO, male Wistar rats, Estimated Value, read-out: AUC24/AUC24 (plasma)
  Kp: 2.49
[1]; [5]
  AUC(0-inf): 18300 ng·h/mL
  Cmax: 2800 ng/mL
  Tmax: 2 h
  AUC: 18100 ng·h/mL
  half-life: 3.38 h
[1]; kidney, 100 mg/kg PO, male Wistar rats, Estimated Value, read-out: AUC24/AUC24 (plasma)
  Kp: 4.68
[1]; [6]
  AUC(0-inf): 32400 ng·h/mL
  Cmax: 5250 ng/mL
  Tmax: 2 h
  AUC: 32100 ng·h/mL
  half-life: 3.28 h
[1]; liver, 100 mg/kg PO, male Wistar rats, Estimated Value, read-out: AUC24/AUC24 (plasma)
  Kp: 8.3
[1]; [7]
  AUC(0-inf): 3150 ng·h/mL
  Cmax: 436 ng/mL
  Tmax: 2 h
  AUC: 3120 ng·h/mL
  half-life: 3.7 h
[1]; muscle, 100 mg/kg PO, male Wistar rats, Estimated Value, read-out: AUC24/AUC24 (plasma)
  Kp: 0.805
[1]; [8]
  AUC(0-inf): 8080 ng·h/mL
  Cmax: 1260 ng/mL
  Tmax: 2 h
  AUC: 7960 ng·h/mL
  half-life: 3.89 h
[1]; prostate, 100 mg/kg PO, male Wistar rats, Estimated Value, read-out: AUC24/AUC24 (plasma)
  Kp: 2.05
[1]; [9]
  AUC(0-inf): 12200 ng·h/mL
  Cmax: 1910 ng/mL
  Tmax: 2 h
  AUC: 12000 ng·h/mL
  half-life: 3.81 h
[1]; spleen, 100 mg/kg PO, male Wistar rats, Estimated Value, read-out: AUC24/AUC24 (plasma)
  Kp: 3.1
[1]; spleen, 100 mg/kg PO, male Wistar rats, 2 h, individual animals
  Spleen concentration: 1420 ng/mL and 2260 ng/mL
[1]; spleen, 100 mg/kg PO, male Wistar rats, 8 h, individual animals
  Spleen concentration: 726 ng/mL and 129 ng/mL and 268 ng/mL
[1]; spleen, 100 mg/kg PO, male Wistar rats, 24 h, individual animals
  Spleen concentration: BQL
[2]
  Anti-IgM induced autophosphorylation of SYK and phosphorylation of CD19, BTK, ERK1/2 and JNK1/2: dose-dependently inhibited

Reference: PMC8632988, “Inhibition of SYK and cSrc kinases can protect bone and cartilage in preclinical models of osteoarthritis and rheumatoid arthritis” (Scientific Reports, 2021)
